# Laboratory results from US7816519B2, “Derivatives of 1,2-dihydro-7-hydroxyquinolines containing fused rings” (Life Technologies Corporation, priority 2000, dated 2010).
# pKd: −log10 of the molar value.
# Assays:
# [1] = Fluorescence quantum yield determination against sulforhodamine 101 reference; type: physicochemical; settings: excited at 560 nm, triplicate
# Experimental: The fluorescence quantum yield of Compound 41 is determined using sulforhodamine 101 (in ethyl alcohol) as the reference standard (φF=0.90). The concentrations of sulforhodamine 101 (the reference) and Compound 41 are adjusted to obtain an absorbance of 0.25 (in 1 cm cell) at 560 nm. The sample and reference are each excited at 560 nm and their fluorescence spectra obtained. The fluorescence quantum yield of the sample (φF^X) in the indicated solvent was calculated from the following formula, considering that the peak area (AR) of the emission spectrum of the reference and that of the tested dye (AX) can be readily determined: φF^X=AxφF^RAR where φF^R and φF^X are the fluorescence quantum yields of the reference and the testing dye. The measurements are done in triplicate and the estimated errors are no more than 1%. The quantum yields of Compound 41 are determined to be 0.72 (in methyl alcohol) and 0.68 (in water) respectively.
# [2] = system: Mouse monocyte-macrophage, Abelson Leukemia Virus Transformed (RAW264.7) cells; test: Discrimination of live and dead cells by flow cytometry; type: cell-based; settings: heat-killed fraction (50° C., 20 minutes), 30 minutes on ice
# Experimental: Selected dyes of the invention are highly polar, and therefore relatively impermeable to the membranes of live cells. These dyes can therefore be used to discriminate cells that have intact versus compromised cell membranes in a single-color assay as follows: Mouse monocyte-macrophage, Abelson Leukemia Virus Transformed (RAW264.7) cells are trypsinized and washed with phosphate buffered saline (PBS), pH 7.2. Approximately 8-10 million cells suspended in 180 μL of PBS, pH 7.2 are placed in a glass test tube and heated in a water bath at 50° C. for 20 minutes to kill a fraction of the cells. […] The mixture is incubated on ice for 30 minutes and washed twice with PBS, followed by addition of 200 μL of PBS, pH 7.2. An identical aliquot of cells is treated with 2 μL of a 150 μM solution of propidium iodide in water (as a control for dead cells).
# [3] = system: Neurons from zebrafish embryos; test: Neuronal tracing using a hydrazide-labeled fluorophore (microinjection); type: cell-based
# Text: Neurons from zebrafish embryos are microinjected with Compound 44, using standard methods as described by Blankenfeld et al. (J. NEUROSCI. METH. 36, 309 (1991)). […] The staining is fixable in the cells using formaldehyde and standard fixing methods.
# [4] = Determination of the Ca2+ binding affinity (fluorescence titration, method of Tsien et al.)
# Experimental: The fluorescence response and dissociation constant of Compound 58 is determined using the method described by Tsien et al. METH. ENZYM. 172, 230 (1989). Compound 58 (1 mg) is dissolved in deionized water and 5 µL of this solution is diluted into 3 mL of each of two buffers, which are cross diluted to arrive at a series of Ca^2+ concentrations between zero and 35 µM. Emission spectra of the dye solutions are scanned between dilutions to generate a family of curves. Each of these curves has maximal fluorescence emission at approximately 640 nm with an increase in fluorescence emission intensity with increasing Ca^2+ concentration. This intensity change is plotted against the concentration of free Ca^2+ to give a value for the dissociation constant of the indicator. The calculated dissociation constant at 20° C. is 57.5 μM.
# [5] = in ethyl alcohol; cited from earlier work
# [6] = Fluorescence of selected protein conjugates; type: physicochemical; settings: protein conjugates prepared with Compound 42 as in Example 47
# Experimental: A series of dye conjugates of goat anti-mouse IgG, streptavidin and other proteins, including R-phycoerythrin (R-PE) are prepared by standard means (Haugland et al., METH. MOL. BIOL. 45, 205 (1995); Haugland, METH. MOL. BIOL. 45, 223 (1995); Haugland, METH. MOL. BIOL. 45, 235 (1995)) using Compound 42 and a succinimidyl ester derivative of CY-5 dye.
# A solution of the desired protein is prepared at 10 mg/mL in 0.1 M sodium bicarbonate. The labeling reagents are dissolved in DMF at 10 mg/mL. Predetermined amounts of the labeling reagents are added to the protein solutions with stirring. A molar ratio of 10 equivalents of dye to 1 equivalent of protein is typical, though the optimal amount varies with the particular labeling reagent, the protein being labeled and the protein's concentration, and is determined empirically. The reaction mixture is incubated at room temperature for one hour, or on ice for several hours. The dye-protein conjugate is typically separated from free unreacted reagent by size-exclusion chromatography on BIO-RAD P-30 resin equilibrated with PBS. The initial, protein-containing colored band is collected and the degree of substitution is determined from the absorbance at the absorbance maximum of each fluorophore, using the extinction coefficient of the free fluorophore.
molecule,measurement,setting,value
CN1c2cc3c(cc2-c2sc(S(=O)(=O)O)cc2C1(C)C)C(c1c(F)c(SCC(=O)O)cc(F)c1S(=O)(=O)[O-])=c1cc2c(cc1O3)=[N+](C)C(C)(C)c1cc(S(=O)(=O)O)sc1-2 [Compound 41],fluorescence quantum yield,[1]; in methyl alcohol,0.72
same,fluorescence quantum yield,[1]; in water,0.68
CN1c2cc3c(cc2-c2sc(S(=O)(=O)O)cc2C1(C)C)C(c1c(F)c(SCC(=O)ON2C(=O)CCC2=O)cc(F)c1S(=O)(=O)[O-])=c1cc2c(cc1O3)=[N+](C)C(C)(C)c1cc(S(=O)(=O)O)sc1-2 [Compound 42],"dead cell populations stained, compared with propidium iodide",[2],very similar
CN1c2cc3c(cc2-c2sc(S(=O)(=O)O)cc2C1(C)C)C(c1c(F)c(SCC(=O)NN)cc(F)c1S(=O)(=O)[O-])=c1cc2c(cc1O3)=[N+](C)C(C)(C)c1cc(S(=O)(=O)O)sc1-2 [Compound 44],filling and fluorescence of microinjected neurons,[3],neurons rapidly fill with the dye throughout their volume and their red fluorescence is readily observable
Cc1ccc(N(CC(=O)O)CC(=O)O)c(OCCOc2cc(C3=c4cc5c(cc4Oc4cc6c(cc43)-c3sc4ccccc4c3C(C)(C)N6C)=[N+](C)C(C)(C)c3c-5sc4ccccc34)ccc2N(CC(=O)[O-])CC(=O)O)c1 [Compound 58],maximal fluorescence emission,"[4]; Ca2+ buffer series, intensity increases with increasing Ca2+",approximately 640 nm
same,pKd,"[4]; at 20° C., free Ca2+ between zero and 35 µM, read-out: dissociation constant (Ca2+)",4.24
O=S(=O)([O-])c1cc(S(=O)(=O)O)ccc1C1=c2cc3c4c(c2Oc2c1cc1c5c2CCCN5CCC1)CCC[N+]=4CCC3 [sulforhodamine 101],fluorescence quantum yield of reference standard (φF),[5],0.90
Wheat Germ Agglutinin,Quantum Yield,[6],0.56
